Experimental findings from PubChem BioAssay AID220 (DTP/NCI, 2004) are described below.

Structures are written as SMILES. “And” between values parts separate entries of the source, which are not always exact repeats. Equal values may be shown once. Inconclusive results are not listed.

This test relates to CD8F1 mice, subcutaneous mammary adenocarcinoma, T/C%. The experiment in a line: NCI In Vivo Anticancer Drug Screen. Data for tumor model Mammary Adenocarcinoma CD8F1 (subcutaneous) in CD8F1. As to conditions: higher = larger tumour. The essentials: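 Tumor-bearing mice, transplantable model; readout survival or tumor size; value = treated (T) / vehicle control (C).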
[1] abbreviates: endpoint: median tumor weight (est.), dose: 25.0 mg/kg/injection, schedule: Q07DX004 (ip), vehicle: saline.
The mark [2] stands for this setting: endpoint: median tumor weight (est.), dose: 50.0 mg/kg/injection, schedule: Q07DX004 (ip), vehicle: saline.

For `O=C1c2ccccc2C(=O)c2c(NCCNCCO)ccc(NCCNCCO)c21`, the T/C by setting is: (endpoint: mean tumor weight, dose: 8.3 mg/kg/injection, schedule: Q07DX004 (ip), vehicle: Klucel (hydroxypropylcellulose) (HPC)) 60 % of control; (endpoint: mean tumor weight, dose: 16.6 mg/kg/injection, schedule: Q07DX004 (ip), vehicle: Klucel (hydroxypropylcellulose) (HPC)) 81 % of control; (endpoint: mean tumor weight, dose: 31.25 mg/kg/injection, schedule: Q07DX004 (ip), vehicle: Klucel (hydroxypropylcellulose) (HPC)) 25 % of control; (endpoint: mean tumor weight, dose: 62.5 mg/kg/injection, schedule: Q07DX004 (ip), vehicle: Klucel (hydroxypropylcellulose) (HPC)) 59 % of control; (endpoint: mean tumor weight, dose: 125.0 mg/kg/injection, schedule: Q07DX004 (ip), vehicle: Klucel (hydroxypropylcellulose) (HPC)) 37 % of control; (endpoint: median tumor weight (est.), dose: 2.0 mg/kg/injection, schedule: Q07DX005 (ip), vehicle: saline) 74 % of control. In addition, the T/C is, setting by setting: (endpoint: median tumor weight (est.), dose: 4.0 mg/kg/injection, schedule: Q04DX005 (ip), vehicle: water) 97 % of control; (endpoint: median tumor weight (est.), dose: 4.0 mg/kg/injection, schedule: Q07DX004 (ip), vehicle: water) 74 % of control; (endpoint: median tumor weight (est.), dose: 4.0 mg/kg/injection, schedule: Q07DX005 (ip), vehicle: saline) 92 % of control; (endpoint: median tumor weight (est.), dose: 4.0 mg/kg/injection, schedule: Q07DX005 (ip), vehicle: water) 93 % of control; (endpoint: median tumor weight (est.), dose: 8.0 mg/kg/injection, schedule: Q04DX005 (ip), vehicle: water) 62 % of control; (endpoint: median tumor weight (est.), dose: 8.0 mg/kg/injection, schedule: Q07DX004 (ip), vehicle: water) 69 % of control. For the same molecule, the T/C was 92 % of control (endpoint: median tumor weight (est.), dose: 8.0 mg/kg/injection, schedule: Q07DX005 (ip), vehicle: saline); 30 % of control (endpoint: median tumor weight (est.), dose: 15.63 mg/kg/injection, schedule: Q04DX005 (ip), vehicle: Klucel (hydroxypropylcellulose) (HPC)); 33 % of control (endpoint: median tumor weight (est.), dose: 15.63 mg/kg/injection, schedule: Q07DX004 (ip), vehicle: Klucel (hydroxypropylcellulose) (HPC)); 66 % of control (endpoint: median tumor weight (est.), dose: 16.0 mg/kg/injection, schedule: Q04DX005 (ip), vehicle: water); 72 % of control (endpoint: median tumor weight (est.), dose: 16.0 mg/kg/injection, schedule: Q07DX004 (ip), vehicle: water); 84 % of control (endpoint: median tumor weight (est.), dose: 16.0 mg/kg/injection, schedule: Q07DX005 (ip), vehicle: saline). Also, the T/C (endpoint: median tumor weight (est.), dose: 16.12 mg/kg/injection, schedule: Q04DX005 (ip), vehicle: Klucel (hydroxypropylcellulose) (HPC)) was 9 % of control; the T/C (endpoint: median tumor weight (est.), dose: 16.12 mg/kg/injection, schedule: Q07DX004 (ip), vehicle: Klucel (hydroxypropylcellulose) (HPC)) is 17 % of control; the T/C (endpoint: median tumor weight (est.), dose: 31.25 mg/kg/injection, schedule: Q04DX005 (ip), vehicle: Klucel (hydroxypropylcellulose) (HPC)) was 11 % of control; the T/C (endpoint: median tumor weight (est.), dose: 32.0 mg/kg/injection, schedule: Q01DX001 (ip), vehicle: water) is 63 % of control; the T/C (endpoint: median tumor weight (est.), dose: 32.0 mg/kg/injection, schedule: Q04DX005 (ip), vehicle: water) is 18 % of control; the T/C (endpoint: median tumor weight (est.), dose: 32.0 mg/kg/injection, schedule: Q07DX004 (ip), vehicle: water) is 44 % of control. In addition, the T/C reads like this: (endpoint: median tumor weight (est.), dose: 32.0 mg/kg/injection, schedule: Q07DX005 (ip), vehicle: saline) 56 % of control; (endpoint: median tumor weight (est.), dose: 62.5 mg/kg/injection, schedule: Q07DX005 (ip), vehicle: Klucel (hydroxypropylcellulose) (HPC)) 10 % of control; (endpoint: median tumor weight (est.), dose: 64.0 mg/kg/injection, schedule: Q07DX004 (ip), vehicle: water) 7 % of control; (endpoint: median tumor weight (est.), dose: 64.0 mg/kg/injection, schedule: Q07DX005 (ip), vehicle: water) 19 % of control.
Take `Oc1ccc(O)cc1`: the T/C was 36 % of control (endpoint: median tumor weight (est.), dose: 12.5 mg/kg/injection, schedule: Q07DX004 (ip), vehicle: saline); 76 % of control under setting [1]; 68 % of control under setting [2]; 57 % of control (endpoint: median tumor weight (est.), dose: 100.0 mg/kg/injection, schedule: Q07DX004 (ip), vehicle: saline).
As to `COc1cc2cc(c1Cl)N(C)C(=O)CC(OC(=O)C(C)N(C)C(=O)C(C)C)C1(C)OC1C(C)C1CC(O)(NC(=O)O1)C(OC)/C=C/C=C(C)C2OC` (stereo not drawn), the T/C (endpoint: median tumor weight change, dose: 16.0 micrograms/kg/injection, schedule: Q01DX001 (ip), vehicle: Klucel (hydroxypropylcellulose) (HPC)) was 73 % of control; the T/C (endpoint: median tumor weight change, dose: 32.0 micrograms/kg/injection, schedule: Q01DX001 (ip), vehicle: Klucel (hydroxypropylcellulose) (HPC)) was 124 % of control; the T/C (endpoint: median tumor weight change, dose: 64.0 micrograms/kg/injection, schedule: Q01DX001 (ip), vehicle: Klucel (hydroxypropylcellulose) (HPC)) was 82 % of control; the T/C (endpoint: median tumor weight change, dose: 128.0 micrograms/kg/injection, schedule: Q01DX001 (ip), vehicle: Klucel (hydroxypropylcellulose) (HPC)) is 80 % of control; the T/C (endpoint: median tumor weight change, dose: 256.0 micrograms/kg/injection, schedule: Q01DX001 (ip), vehicle: Klucel (hydroxypropylcellulose) (HPC)) is 64 % of control.
Turning to `O=S(=O)(CCl)OCCCl`, the T/C is, setting by setting: (endpoint: median tumor weight change, dose: 62.5 mg/kg/injection, schedule: Q01DX001 (ip), vehicle: saline with Tween-80) 56 % of control; (endpoint: median tumor weight change, dose: 125.0 mg/kg/injection, schedule: Q01DX001 (ip), vehicle: saline with Tween-80) 60 % of control; (endpoint: median tumor weight change, dose: 250.0 mg/kg/injection, schedule: Q01DX001 (ip), vehicle: saline with Tween-80) 69 % of control.
Regarding `C(C#CCN1CCOCC1)#CCN1CCOCC1`, the T/C was 181 % of control (endpoint: median tumor weight (est.), dose: 25.0 mg/kg/injection, schedule: Q07DX005 (ip), vehicle: Klucel (hydroxypropylcellulose) (HPC)); 43 % of control (endpoint: median tumor weight (est.), dose: 50.0 mg/kg/injection, schedule: Q07DX005 (ip), vehicle: Klucel (hydroxypropylcellulose) (HPC)); 48 % of control (endpoint: median tumor weight (est.), dose: 100.0 mg/kg/injection, schedule: Q07DX005 (ip), vehicle: Klucel (hydroxypropylcellulose) (HPC)); 41 % of control (endpoint: median tumor weight (est.), dose: 200.0 mg/kg/injection, schedule: Q07DX005 (ip), vehicle: Klucel (hydroxypropylcellulose) (HPC)); 68 % of control (endpoint: median tumor weight (est.), dose: 400.0 mg/kg/injection, schedule: Q07DX005 (ip), vehicle: Klucel (hydroxypropylcellulose) (HPC)); 62 % of control (endpoint: median tumor weight (est.), dose: 800.0 mg/kg/injection, schedule: Q07DX005 (ip), vehicle: Klucel (hydroxypropylcellulose) (HPC)).
Consider `Oc1c(Cl)cc(Cl)cc1C=NCCSc1ccc(Cl)cc1`, for which the T/C was 99 % of control and 100 % of control (endpoint: median tumor weight change, dose: 62.5 mg/kg/injection, schedule: Q01DX001 (ip), vehicle: Klucel (hydroxypropylcellulose) (HPC)); 89 % of control and 104 % of control (endpoint: median tumor weight change, dose: 125.0 mg/kg/injection, schedule: Q01DX001 (ip), vehicle: Klucel (hydroxypropylcellulose) (HPC)); 87 % of control and 103 % of control (endpoint: median tumor weight change, dose: 250.0 mg/kg/injection, schedule: Q01DX001 (ip), vehicle: Klucel (hydroxypropylcellulose) (HPC)).
As to `O=[N+]([O-])O.[Ga]`, the T/C by setting is: (endpoint: mean tumor weight, dose: 75.0 mg/kg/injection, schedule: Q01DX009 (ip), vehicle: saline) 120 % of control; (endpoint: median tumor weight (est.), dose: 6.25 mg/kg/injection, schedule: Q07DX005 (ip), vehicle: saline) 94 % of control; (endpoint: median tumor weight (est.), dose: 12.5 mg/kg/injection, schedule: Q07DX005 (ip), vehicle: saline) 114 % of control; (endpoint: median tumor weight (est.), dose: 25.0 mg/kg/injection, schedule: Q04DX005 (ip), vehicle: saline) 91 % of control; under setting [1], 120 % of control; (endpoint: median tumor weight (est.), dose: 25.0 mg/kg/injection, schedule: Q07DX005 (ip), vehicle: saline) 120 % of control. Moreover, the T/C reads like this: under setting [2], 184 % of control; (endpoint: median tumor weight (est.), dose: 100.0 mg/kg/injection, schedule: Q04DX005 (ip), vehicle: saline) 153 % of control.
Consider `O=C(CCBr)N1CCN(C(=O)CCBr)CC1`, for which the T/C is, setting by setting: (endpoint: median tumor weight (est.), dose: 10.0 mg/kg/injection, schedule: Q07DX005 (ip), vehicle: Klucel (hydroxypropylcellulose) (HPC)) 94 % of control; (endpoint: median tumor weight (est.), dose: 20.0 mg/kg/injection, schedule: Q07DX005 (ip), vehicle: Klucel (hydroxypropylcellulose) (HPC)) 53 % of control; (endpoint: median tumor weight (est.), dose: 40.0 mg/kg/injection, schedule: Q07DX005 (ip), vehicle: Klucel (hydroxypropylcellulose) (HPC)) 67 % of control; (endpoint: median tumor weight (est.), dose: 80.0 mg/kg/injection, schedule: Q07DX005 (ip), vehicle: Klucel (hydroxypropylcellulose) (HPC)) 42 % of control; (endpoint: median tumor weight (est.), dose: 160.0 mg/kg/injection, schedule: Q07DX005 (ip), vehicle: Klucel (hydroxypropylcellulose) (HPC)) 19 % of control; (endpoint: median tumor weight (est.), dose: 320.0 mg/kg/injection, schedule: Q07DX005 (ip), vehicle: Klucel (hydroxypropylcellulose) (HPC)) 6 % of control.
As for `CS(C)=O`, for the setting “endpoint: median tumor weight (est.), dose: 1.5 grams/kg/injection, schedule: Q07DX005 (ip), vehicle: saline”, the T/C was 106 % of control and 122 % of control.
As to `O=Cc1ccc([N+](=O)[O-])s1`, the T/C by setting is: (endpoint: median tumor weight (est.), dose: 6.25 mg/kg/injection, schedule: Q07DX005 (ip), vehicle: saline with Tween-80) 225 % of control; (endpoint: median tumor weight (est.), dose: 12.5 mg/kg/injection, schedule: Q07DX005 (ip), vehicle: saline with Tween-80) 71 % of control; (endpoint: median tumor weight (est.), dose: 25.0 mg/kg/injection, schedule: Q07DX005 (ip), vehicle: saline with Tween-80) 295 % of control; (endpoint: median tumor weight (est.), dose: 50.0 mg/kg/injection, schedule: Q07DX005 (ip), vehicle: saline with Tween-80) 156 % of control.
